# pKi: −log10 of the molar value.
# Target: T1, mutated (E4Q, A5T) hMCHR1 receptor (Homo sapiens, UniProt Q99705, A5T/E4Q)
# T1 construct: expressed in transfected cells
# Test: Radioligand binding assay for assessment of MCHR1 activity
# Settings: membranes from stably transfected HEK-293 cells; competition with [Phe13,[125I]Tyr19]-MCH, 90 min
# Method: Radioligand Binding Assay for Assessment of MCHR1 Activity
# Membranes from stably transfected HEK-293 cells expressing a mutated (E4Q, A5T) hMCHR1 receptor were prepared by dounce homogenization and differential centrifugation. Binding experiments were carried out with 0.5-1.0 ug of membrane protein incubated in a total of 0.2 ml in 25 mM HEPES (pH 7.4) with 10 mM MgCl2, 2 mM EGTA, and 0.1% BSA (Binding Buffer) for 90 min. For competition binding assays, reactions were carried out in the presence of with 0.06-0.1 nM [Phe^13, [^125I]Tyr^19]-MCH and increasing concentrations of unlabeled test molecules. Reactions were terminated by rapid vacuum filtration over 96 well-GFC UNIFILTER® plates pre-coated with 0.075 ml binding buffer containing 1% BSA, and washed 3 times with 0.4 ml of Phospho-buffered Saline (pH 7.4) containing 0.01% TX-100. Filters were dried, 0.05 ml microscint 20 was added to each well and radioactivity was subsequently quantified by scintillation counting on a TOPCOUNT® microplate scintillation counter (Packard). Inhibitory constants were determined by nonlinear least squares analysis using a four parameter logistic equation.
# T1 sequence (Q99705 whole entry E4Q/A5T): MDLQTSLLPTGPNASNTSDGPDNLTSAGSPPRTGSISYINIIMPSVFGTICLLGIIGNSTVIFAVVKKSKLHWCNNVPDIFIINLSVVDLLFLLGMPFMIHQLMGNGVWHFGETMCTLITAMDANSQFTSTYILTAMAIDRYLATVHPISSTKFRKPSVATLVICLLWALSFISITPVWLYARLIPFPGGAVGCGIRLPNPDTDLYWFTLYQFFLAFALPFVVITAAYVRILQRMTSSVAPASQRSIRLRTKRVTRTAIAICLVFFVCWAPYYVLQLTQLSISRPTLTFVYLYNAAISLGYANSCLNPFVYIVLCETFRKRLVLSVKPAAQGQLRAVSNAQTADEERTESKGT
row,pKi,SMILES
1,8.52,"COc1cc(-n2nnc3cc(-c4ccc(Cl)cc4)sc3c2=O)ccc1OCC(C)(C)O [Example 1, 6-(4-Chlorophenyl)-3-(4-(2-hydroxy-2-methylpropoxy)-3-methoxyphenyl)-thieno[3,2-d][1,2,3]triazin-4(3H)-one]"
2,8.30,"COc1cc(-n2nnc3cc(-c4ccc(Cl)cc4)sc3c2=O)ccc1OCC(C)=O [Example 2, 6-(4-Chlorophenyl)-3-(3-methoxy-4-(2-oxopropoxy)phenyl)thieno[3,2-d][1,2,3]triazin-4(3H)-one]"
3,8.00,"COc1cc(-n2nnc3cc(-c4ccc(Cl)cc4)sc3c2=O)ccc1OCC(O)C1CC1 (stereo not drawn) [Example 5, 6-(4-Chlorophenyl)-3-(4-(2-cyclopropyl-2-hydroxyethoxy)-3-methoxyphenyl)thieno[3,2-d][1,2,3]triazin-4(3H)-one]"
4,7.72,COc1cc(-n2nnc3cc(-c4ccc(Cl)cc4)sc3c2=O)ccc1OC[C@H]1OC(C)(C)O[C@@H]1C [Example 6]
5,8.10,"COc1cc(-n2nnc3cc(-c4ccc(Cl)cc4)sc3c2=O)ccc1OCC(O)C(F)(F)F (stereo not drawn) [Example 8, 6-(4-Chlorophenyl)-3-(3-methoxy-4-(3,3,3-trifluoro-2-hydroxypropoxy)phenyl)thieno[3,2-d][1,2,3]triazin-4(3H)-one]"

# Continued, compound first:
row,SMILES,pKi
1,"COc1cc(-n2nnc3cc(-c4ccc(Cl)cc4)sc3c2=O)ccc1OCC(C)O (stereo not drawn) [Example 3, 6-(4-Chlorophenyl)-3-(4-(2-hydroxypropoxy)-3-methoxyphenyl)thieno[3,2-d][1,2,3]triazin-4(3H)-one]",8.15
2,"COc1cc(-n2nnc3cc(-c4ccc(Cl)cc4)sc3c2=O)ccc1OCCO [Example 4, 6-(4-Chlorophenyl)-3-(4-(2-hydroxyethoxy)-3-methoxyphenyl)thieno[3,2-d][1,2,3]triazin-4(3H)-one]",8.30
3,"COc1cc(-n2nnc3cc(-c4ccc(Cl)cc4)sc3c2=O)ccc1OC[C@@H](O)[C@@H](C)O [Example 7, 6-(4-Chlorophenyl)-3-(4-((2R,3R)-2,3-dihydroxybutoxy)-3-methoxyphenyl)thieno[3,2-d][1,2,3]triazin-4(3H)-one]",8.30
4,"COc1cc(-n2ncc3cc(-c4ccc(Cl)cc4)sc3c2=O)ccc1OCC(C)(C)O [Example 9, 2-(4-Chlorophenyl)-6-(4-(2-hydroxy-2-methylpropoxy)-3-methoxyphenyl)-thieno[2,3-d]pyridazin-7(6H)-one]",8.40
